Experimental data from patent US20230106032A1, “IMIDAZOTRIAZINES ACTING ON CANCER VIA INHIBITION OF CDK12” (Bayer Aktiengesellschaft, priority 2020, published 2023).

How the values were obtained:
[1] = molecular target: T1, CDK12/CycK (Homo sapiens, UniProt Q9NYV4); assay: CDK12/CycK high ATP kinase assay (TR-FRET, 2 mM ATP); type: biochemical; settings: read-out: CDK12/CyclinK, 2 mM ATP (high ATP), IC50-[mol/l] (median)
T1 construct: His-CDK12 (aa Q696-S1082); made in house; host or cells: Hi-5 insect cells (baculovirus co-infection with CAK1)
Excerpt: In the context of the present invention, the term “IC50 CDK12 hATP” refers to the IC50 values obtained according to the assay described in this section (2.2) herein below, i.e. the IC50 values for the inhibition of CDK12 at high ATP.
CDK12/CycK-inhibitory activity of compounds of the present invention at 2 millimol/L adenosine-tri-phosphate (ATP) was quantified employing the TR-FRET (TR-FRET=Time Resolved Fluorescence Energy Transfer) based CDK12/CycK activity inhibition assay as described in the following paragraphs.
A complex of human recombinant CDK12 and human recombinant CycK (both N-terminally His-tagged, expression and purification as described above) was used as enzyme. As substrate for the kinase reaction biotinylated peptide biotin-Ahx-KFELLPTPPLSPSRRSGL (C-terminus in amid form) was used which can be purchased e.g. form the company Biosyntan (Berlin-Buch, Germany).
For the assay 50 nanoL of a 100 fold concentrated solution of the test compound in DMSO was pipetted into either a black low volume 384 well microtiter plate or a black 1536 well microtiter plate (both Greiner Bio-One, Frickenhausen, Germany), 2 microL of a solution of CDK12/CycK in aqueous assay buffer [25 millimol/L HEPES pH 7.5, 20 millimol/L MgCl2, 5 millimol/L ß-glycerophosphate, 2 millimol/L EGTA, 1.0 millimol/L dithiothreitol, 0.01% (v/v) Nonidet-P40 (Sigma), 0.01% (w/v) bovine serum albumin] were added and the mixture was incubated for 15 min at 22° C. to allow pre-binding of the test compounds to the enzyme before the start of the kinase reaction. Then the kinase reaction was started by the addition of 3 microL of a solution ATP (3.33 millimol/L=> final conc. in the 5 microL assay volume is 2 millimol/L) and substrate (1.67 micromol/L=> final conc. in the 5 microL assay volume is 1 micromol/L) in assay buffer and the resulting mixture was incubated for a reaction time of 60 min at 22° C. The concentration of CDK12/CycK was adjusted depending of the activity of the enzyme lot and was chosen appropriate to have the assay in the linear range, typical concentrations were about 0.75 nanomol/L. The reaction was stopped by the addition of 3 microL of a solution of TR-FRET detection reagents (125 nanomol/L streptavidine-XL665 [Cisbio Bioassays, Codolet, France] and 0.67 nanomol/L anti-Phospho-c-Myc (Ser 62) (E1J4K)-antibody from Cell Signalling [#13748] and 2 nanomol/L LANCE EU-W1024 labeled anti-rabbit IgG antibody [Perkin-Elmer, product no. 0083]) in an aqueous EDTA-solution (133 millimol/L EDTA, 0.27% (w/v) bovine serum albumin in 66.7 millimol/L HEPES pH 7.5).
(§1) The resulting mixture was incubated 1 h at 22° C. to allow the formation of complex between the phosphorylated biotinylated peptide and the detection reagents. Subsequently the amount of phosphorylated substrate was evaluated by measurement of the resonance energy transfer from the Eu-chelate to the streptavidine-XL. Therefore, the fluorescence emissions at 620 nm and 665 nm after excitation at 350 nm was measured in a TR-FRET reader, e.g. a Pherastar FS (BMG Labtechnologies, Offenburg, Germany) or a Viewlux (Perkin-Elmer). The ratio of the emissions at 665 nm and at […] was taken as the measure for the amount of phosphorylated substrate. The data were normalised (enzyme reaction without inhibitor=0% inhibition, all other assay components but no enzyme=100% inhibition).

[2] = molecular target: T2, CDK9/CycT1 (Homo sapiens, UniProt P50750); assay: CDK9/CycT1 high ATP kinase assay (TR-FRET, 2 mM ATP); type: biochemical; settings: read-out: CDK9/CyclinT1, 2 mM ATP (high ATP) IC50-[mol/l] (median)
T2 construct: Recombinant full-length His-tagged human CDK9 and CycT1, expressed in insect cells; His; purchased Life Technologies PV4131; host or cells: insect cells
Procedure: CDK9/CycT1-inhibitory activity of compounds of the present invention at a high ATP concentration after preincubation of enzyme and test compounds was quantified employing the CDK9/CycT1 TR-FRET assay as described in the following paragraphs.
Recombinant full-length His-tagged human CDK9 and CycT1, expressed in insect cells and purified by Ni-NTA affinity chromatography, were purchased from Life Technologies (Cat. No PV4131). As substrate for the kinase reaction biotinylated peptide biotin-Ttds-YISPLKSPYKISEG (C-terminus in amide form) was used which can be purchased e.g. form the company JERINI peptide technologies (Berlin, Germany).
For the assay 50 nanoL of a 100 fold concentrated solution of the test compound in DMSO was pipetted into either a black low volume 384 well microtiter plate or a black 1536 well microtiter plate (both Greiner Bio-One, Frickenhausen, Germany), 2 microL of a solution of CDK9/CycT1 in aqueous assay buffer [50 millimol/L Tris/HCl pH 8.0, 10 millimol/L MgCl2, 1.0 millimol/L dithiothreitol, 0.1 millimol/L sodium ortho-vanadate, 0.01% (v/v) Nonidet-P40 (Sigma)] were added and the mixture was incubated for 15 min at 22° C. to allow pre-binding of the test compounds to the enzyme before the start of the kinase reaction. Then the kinase reaction was started by the addition of 3 microL of a solution of adenosine-tri-phosphate (ATP, 3.3 millimol/L=> final conc. in the 5 microL assay volume is 2 millimol/L) and substrate (1.25 micromol/L=> final conc. in the 5 microL assay volume is 0.75 micromol/L) in assay buffer and the resulting mixture was incubated for a reaction time of 25 min at 22° C. The concentration of CDK9/CycT1 was adjusted depending of the activity of the enzyme lot and was chosen appropriate to have the assay in the linear range, typical concentrations were in the range of 0.5 microg/ml. The reaction was stopped by the addition of 3 microL of a solution of TR-FRET detection reagents (0.33 micromol/L streptavidine-XL665 [Cisbio Bioassays, Codolet, France] and 1.67 nanomol/L anti-RB(pSer807/pSer8l 1)-antibody from BD Pharmingen [#558389] and 2 nanomol/L LANCE EU-W1024 labeled anti-mouse IgG antibody [Perkin-Elmer, product no. AD0077]) in an aqueous EDTA-solution (167 millimol/L EDTA, 0.2% (w/v) bovine serum albumin in 100 millimol/L HEPES pH 7.5).
as §1, with “Pherastar” for “Pherastar FS”

T1 sequence (Q9NYV4 with tags, fused parts or gaps): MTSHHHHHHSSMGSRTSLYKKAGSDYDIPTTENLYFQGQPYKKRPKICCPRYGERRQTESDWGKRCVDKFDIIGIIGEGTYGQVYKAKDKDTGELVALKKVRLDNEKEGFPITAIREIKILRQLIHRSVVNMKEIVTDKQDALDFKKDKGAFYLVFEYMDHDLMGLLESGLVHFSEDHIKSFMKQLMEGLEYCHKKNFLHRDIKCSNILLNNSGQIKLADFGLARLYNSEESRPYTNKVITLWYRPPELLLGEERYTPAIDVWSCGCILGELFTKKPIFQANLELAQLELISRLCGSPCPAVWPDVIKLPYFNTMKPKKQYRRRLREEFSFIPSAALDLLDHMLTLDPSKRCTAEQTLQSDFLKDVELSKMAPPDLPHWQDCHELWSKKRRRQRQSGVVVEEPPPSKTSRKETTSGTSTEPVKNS
T1 sequence (O75909 with tags, fused parts or gaps partner limits assumed): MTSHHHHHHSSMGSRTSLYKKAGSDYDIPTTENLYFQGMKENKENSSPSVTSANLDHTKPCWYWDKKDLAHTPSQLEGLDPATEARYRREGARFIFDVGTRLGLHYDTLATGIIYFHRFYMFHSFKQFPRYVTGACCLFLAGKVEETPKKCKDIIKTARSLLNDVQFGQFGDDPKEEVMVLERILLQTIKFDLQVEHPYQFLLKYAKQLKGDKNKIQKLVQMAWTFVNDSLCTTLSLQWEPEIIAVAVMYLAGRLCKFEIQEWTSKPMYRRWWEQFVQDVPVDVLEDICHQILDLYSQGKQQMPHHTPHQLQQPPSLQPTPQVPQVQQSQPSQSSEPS
T2 sequence (P50750 whole entry): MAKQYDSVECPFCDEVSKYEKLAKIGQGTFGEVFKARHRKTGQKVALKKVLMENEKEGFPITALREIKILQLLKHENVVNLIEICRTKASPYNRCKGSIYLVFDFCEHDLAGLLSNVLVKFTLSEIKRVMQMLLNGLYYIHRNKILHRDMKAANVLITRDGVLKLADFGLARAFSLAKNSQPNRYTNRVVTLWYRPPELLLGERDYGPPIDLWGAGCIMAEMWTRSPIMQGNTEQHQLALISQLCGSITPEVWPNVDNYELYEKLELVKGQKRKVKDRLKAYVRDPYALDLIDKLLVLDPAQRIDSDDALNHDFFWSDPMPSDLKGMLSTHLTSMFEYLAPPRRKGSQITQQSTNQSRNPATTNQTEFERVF
T2 sequence (O60563 whole entry partner): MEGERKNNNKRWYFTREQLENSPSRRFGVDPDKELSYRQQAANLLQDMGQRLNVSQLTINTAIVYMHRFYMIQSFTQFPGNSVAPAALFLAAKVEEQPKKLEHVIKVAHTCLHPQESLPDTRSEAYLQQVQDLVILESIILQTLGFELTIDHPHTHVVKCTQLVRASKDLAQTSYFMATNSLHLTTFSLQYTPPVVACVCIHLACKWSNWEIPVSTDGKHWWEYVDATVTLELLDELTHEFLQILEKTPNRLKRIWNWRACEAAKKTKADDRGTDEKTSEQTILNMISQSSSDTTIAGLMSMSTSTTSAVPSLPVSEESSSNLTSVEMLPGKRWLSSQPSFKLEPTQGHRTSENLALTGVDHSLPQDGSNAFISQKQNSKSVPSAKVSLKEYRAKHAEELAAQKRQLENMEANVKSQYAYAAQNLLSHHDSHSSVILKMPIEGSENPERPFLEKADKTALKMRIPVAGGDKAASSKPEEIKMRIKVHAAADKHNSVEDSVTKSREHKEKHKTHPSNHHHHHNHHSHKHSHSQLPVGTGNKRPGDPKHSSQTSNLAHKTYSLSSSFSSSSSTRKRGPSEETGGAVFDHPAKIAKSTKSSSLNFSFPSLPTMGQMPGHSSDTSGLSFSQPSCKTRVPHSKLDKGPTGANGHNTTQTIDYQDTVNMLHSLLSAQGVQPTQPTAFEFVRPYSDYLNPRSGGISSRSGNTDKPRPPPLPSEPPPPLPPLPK

Row | IC50 [1] | IC50 [2] | SMILES
1 | 0.116 µM | 4.11 µM | OC[C@@H]1CCCCN1c1nc(NCc2nc3ccccc3[nH]2)c2ncc(Br)n2n1 [Example 17, [(2S)-1-(4-{[(1H-benzimidazol-2-yl)methyl]amino}-7-bromoimidazo[2,1-f][1,2,4]triazin-2-yl)piperidin-2-yl]methanol]
2 | 1.8 µM | 14.2 µM | C[C@@H]1CN(c2nc(NCc3nc4c(F)cccc4[nH]3)c3ncc(Br)n3n2)C[C@H](C)N1 [Example 18, 7-bromo-2-[rel-(3R,5S)-3,5-dimethylpiperazin-1-yl]-N-[(4-fluoro-1H-benzimidazol-2-yl)methyl]imidazo[2,1-f][1,2,4]triazin-4-amine]
3 | 6.43 µM | > 20 µM | C[C@@H]1CN(c2nc(NCc3nc4cc(F)ccc4[nH]3)c3ncc(Br)n3n2)C[C@H](C)N1 [Example 19, 7-bromo-2-[rel-(3R,5S)-3,5-dimethylpiperazin-1-yl]-N-[(5-fluoro-1H-benzimidazol-2-yl)methyl]imidazo[2,1-f][1,2,4]triazin-4-amine]
4 | 3.46 µM | > 20 µM | Fc1ccc2[nH]c(CNc3nc(N4CCOCC4)nn4c(Br)cnc34)nc2c1 [Example 20, 7-bromo-N-[(5-fluoro-1H-benzimidazol-2-yl)methyl]-2-(morpholin-4-yl)imidazo[2,1-f][1,2,4]triazin-4-amine]
5 | 16.5 µM | > 20 µM | CN1CCN(c2nc(NCc3nc4cc(F)ccc4[nH]3)c3ncc(Br)n3n2)CC1 [Example 21, 7-bromo-N-[(5-fluoro-1H-benzimidazol-2-yl)methyl]-2-(4-methylpiperazin-1-yl)imidazo[2,1-f][1,2,4]triazin-4-amine]
6 | 2.56 µM | > 19.7 µM | Fc1cccc2[nH]c(CNc3nc(N4CCNCC4)nn4c(Br)cnc34)nc12 [Example 22, 7-bromo-N-[(4-fluoro-1H-benzimidazol-2-yl)methyl]-2-(piperazin-1-yl)imidazo[2,1-f][1,2,4]triazin-4-amine]
7 | 10.8 µM | > 20 µM | CN1CCN(c2nc(NCc3nc4c(F)cccc4[nH]3)c3ncc(Br)n3n2)CC1 [Example 23, 7-bromo-N-[(4-fluoro-1H-benzimidazol-2-yl)methyl]-2-(4-methylpiperazin-1-yl)imidazo[2,1-f][1,2,4]triazin-4-amine]
8 | 0.737 µM | > 20 µM | C[C@@H]1CN(c2nc(NCc3nc4ccccc4[nH]3)c3ncc(C(F)(F)F)n3n2)C[C@H](C)N1.O=CO [Example 24, N-[(1H-benzimidazol-2-yl)methyl]-2-[rel-(3R,5S)-3,5-dimethylpiperazin-1-yl]-7-(trifluoromethyl)imidazo[2,1-f][1,2,4]triazin-4-amine Formate (1/1)]
9 | 10.8 µM | > 20 µM | CN1CCN(c2nc(NCc3nc4ccccc4[nH]3)c3ncc(C(F)(F)F)n3n2)CC1 [Example 25, N-[(1H-benzimidazol-2-yl)methyl]-2-(4-methylpiperazin-1-yl)-7-(trifluoromethyl)imidazo[2,1-f][1,2,4]triazin-4-amine]
10 | 0.172 µM | > 20 µM | FC(F)(F)c1cnc2c(NCc3nc4ccccc4[nH]3)nc(N3CCOCC3)nn12 [Example 26, N-[(1H-benzimidazol-2-yl)methyl]-2-(morpholin-4-yl)-7-(trifluoromethyl)imidazo[2,1-f][1,2,4]triazin-4-amine]
11 | 0.0107 µM | 6.74 µM | Fc1ccc2[nH]c(CNc3nc(N4CCOCC4)nn4c(C(F)(F)F)cnc34)nc2c1F [Example 27, N-[(4,5-difluoro-1H-benzimidazol-2-yl)methyl]-2-(morpholin-4-yl)-7-(trifluoromethyl)imidazo[2,1-f][1,2,4]triazin-4-amine]
12 | 1.68 µM | > 20 µM | CN1CCN(c2nc(NCc3nc4c(F)c(F)ccc4[nH]3)c3ncc(C(F)(F)F)n3n2)CC1 [Example 28, N-[(4,5-difluoro-1H-benzimidazol-2-yl)methyl]-2-(4-methylpiperazin-1-yl)-7-(trifluoromethyl)imidazo[2,1-f][1,2,4]triazin-4-amine]
13 | 0.0405 µM | 4.62 µM | C[C@@H]1CN(c2nc(NCc3nc4c(F)c(F)ccc4[nH]3)c3ncc(C(F)(F)F)n3n2)C[C@H](C)N1 [Example 29, N-[(4,5-difluoro-1H-benzimidazol-2-yl)methyl]-2-[rel-(3R,5S)-3,5-dimethylpiperazin-1-yl]-7-(trifluoromethyl)imidazo[2,1-f][1,2,4]triazin-4-amine]
14 | 0.163 µM | 10.8 µM | CN(CC(C)(C)O)c1nc(NCc2nc3ccccc3[nH]2)c2ncc(C(F)(F)F)n2n1 [Example 30, 1-[{4-[(1H-benzimidazol-2-ylmethyl)amino]-7-(trifluoromethyl)imidazo[2,1-f][1,2,4]triazin-2-yl}(methyl)amino]-2-methylpropan-2-ol]
